According to patent EP4393921B1, “NALIDINONE COMPOUND AS FGFR4 INHIBITOR AND USE THEREOF” (Wenzhou Medical University, priority 2021, dated 2023):
pIC50: −log10 of the molar value. Like-named read-outs stand apart in the source and are kept apart here.

Columns and labels:
[1] = target: FGFR3 (Homo sapiens, UniProt P22607); test: Mobility shift assay, FGFR3 kinase inhibition
Method: (§2) A specific experimental method is as follows.
(§3) (1) A 1×Kinase buffer was prepared. […] (3) A kinase solution with a 2.5 times final concentration was prepared with the 1×Kinase buffer. (4) 10 µL of the kinase solution with a 2.5 times final concentration was added to compound holes and positive control holes, respectively; and 10 µL of the 1×Kinase buffer was added to negative control holes. (5) Centrifugation was performed at 1,000 rpm for 30 s, the reaction plate was shaken for even mixing, and incubation was performed at room temperature for 60 min. (6) A mixed solution, with a 25/15 times final concentration, of ATP and Kinase substrate22 was prepared with the 1×Kinase buffer. (7) 15 µL of a mixed solution, with a 5/3 times final concentration, of ATP and a substrate was added to carry out an initial reaction. (8) A 384-well plate was centrifuged at 1,000 rpm for 30 s and shaken for even mixing, and incubation was performed at room temperature for 30 min. (9) 30 µL of a terminal detection solution was added to stop a kinase reaction, centrifugation was performed at 1,000 rpm for 30 s, and shaking was performed for even mixing. (10) A conversion rate was read with Caliper EZ Reader.
(§4) A dose-effect curve is fitted as follows.
(§5) With a concentration log value as an X axis and an inhibition rate percentage as a Y axis, the dose-effect curve was fitted by log (inhibitor) vs. response-Variable slope of analysis software GraphPad Prism 5, so as to obtain an IC50 value of each compound on enzyme activity. A calculation formula is: Y=Bottom+(Top-Bottom)/(1+10^((LogIC50-X)*HillSlope)).

[2] = target: FGFR2 (Homo sapiens, UniProt P21802); test: Mobility shift assay, FGFR2 kinase inhibition
Method: as §2, §3, §4, §5

[3] = target: FGFR1 (Homo sapiens, UniProt P11362); test: Mobility shift assay, FGFR1 kinase inhibition
Sequence of FGFR1 (P11362 22-822): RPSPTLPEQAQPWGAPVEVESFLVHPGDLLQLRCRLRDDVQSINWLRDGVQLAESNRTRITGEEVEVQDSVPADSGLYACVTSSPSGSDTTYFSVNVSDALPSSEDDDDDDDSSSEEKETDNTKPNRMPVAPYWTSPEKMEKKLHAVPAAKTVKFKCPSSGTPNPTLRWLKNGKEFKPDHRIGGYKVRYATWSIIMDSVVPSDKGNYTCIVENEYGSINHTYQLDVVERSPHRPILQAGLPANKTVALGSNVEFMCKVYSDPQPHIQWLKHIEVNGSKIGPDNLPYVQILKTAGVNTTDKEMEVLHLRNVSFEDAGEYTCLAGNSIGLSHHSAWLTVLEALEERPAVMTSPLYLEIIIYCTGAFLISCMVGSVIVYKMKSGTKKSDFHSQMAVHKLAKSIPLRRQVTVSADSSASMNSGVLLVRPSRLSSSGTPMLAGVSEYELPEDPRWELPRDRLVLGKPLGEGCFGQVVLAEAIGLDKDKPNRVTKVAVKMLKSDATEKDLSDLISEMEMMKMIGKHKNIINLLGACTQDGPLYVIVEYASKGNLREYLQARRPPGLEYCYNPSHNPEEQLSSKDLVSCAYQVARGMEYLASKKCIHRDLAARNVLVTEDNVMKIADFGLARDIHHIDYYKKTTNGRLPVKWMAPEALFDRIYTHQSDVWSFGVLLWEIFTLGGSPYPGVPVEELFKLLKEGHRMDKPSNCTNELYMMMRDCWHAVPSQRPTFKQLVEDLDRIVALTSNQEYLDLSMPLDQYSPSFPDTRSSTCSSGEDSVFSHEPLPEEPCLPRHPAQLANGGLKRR
Method: as §2, §3, §4, §5

[4] = target: FGFR4 (Homo sapiens, UniProt P22455); test: Mobility shift assay, FGFR4 kinase inhibition
Sequence of FGFR4 (P22455 22-802): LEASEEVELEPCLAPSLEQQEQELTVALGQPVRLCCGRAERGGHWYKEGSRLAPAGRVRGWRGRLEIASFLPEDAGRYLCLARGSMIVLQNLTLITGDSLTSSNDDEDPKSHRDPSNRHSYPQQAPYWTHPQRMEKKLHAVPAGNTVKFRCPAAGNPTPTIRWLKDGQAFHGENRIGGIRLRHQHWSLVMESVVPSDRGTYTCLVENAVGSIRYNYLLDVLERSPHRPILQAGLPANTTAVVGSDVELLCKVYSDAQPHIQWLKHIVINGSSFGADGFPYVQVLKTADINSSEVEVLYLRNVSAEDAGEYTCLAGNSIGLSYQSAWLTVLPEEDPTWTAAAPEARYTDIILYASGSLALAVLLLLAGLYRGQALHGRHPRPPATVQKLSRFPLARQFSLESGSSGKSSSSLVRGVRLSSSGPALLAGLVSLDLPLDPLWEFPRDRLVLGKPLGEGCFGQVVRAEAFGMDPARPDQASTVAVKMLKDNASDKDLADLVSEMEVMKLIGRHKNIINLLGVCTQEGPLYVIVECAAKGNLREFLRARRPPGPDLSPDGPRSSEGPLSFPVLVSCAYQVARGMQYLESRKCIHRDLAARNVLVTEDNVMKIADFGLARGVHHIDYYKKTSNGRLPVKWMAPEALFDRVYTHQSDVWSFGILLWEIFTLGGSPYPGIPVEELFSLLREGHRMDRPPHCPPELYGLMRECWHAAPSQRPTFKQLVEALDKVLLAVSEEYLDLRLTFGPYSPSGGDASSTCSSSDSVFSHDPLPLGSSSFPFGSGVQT
Method: as §2, §3, §4, §5

[5] = tested on: colon cancer cells RKO; test: MTT proliferation assay on colon cancer cells RKO; format: cell-based; settings: 3-100 µM, 72 h, dose-dependent, FIG. 6
Method: (§1) An MTT method was used for determination. An experimental method is briefly described as follows. A test compound 23 was first dissolved in DMSO to prepare a stock solution, and then the stock solution was subjected to gradient dilution with a corresponding cell culture medium to prepare a test sample, where a final concentration of the compound was in the range of 3-100 uM. Cells in a logarithmic culture stage were inoculated into a 96-well cell culture plate at an appropriate density, cultured overnight under corresponding conditions, and then continuously cultured for 72 h after the test compound sample was added. After the culture was completed, an appropriate volume of an MTT detection solution was added to each well, incubation was performed at 37°C for 1-4 h, and the culture medium was carefully discarded. […].

[6] = tested on: colon cancer cells HCT-116; test: MTT proliferation assay on colon cancer cells HCT-116; format: cell-based; settings: 3-100 µM, 72 h, dose-dependent, FIG. 4
Method: as §1

[7] = tested on: colon cancer cells SW480; test: MTT proliferation assay on colon cancer cells SW480; format: cell-based; settings: 3-100 µM, 72 h, dose-dependent, FIG. 5
Method: as §1

Sequence of FGFR2 (P21802 22-821): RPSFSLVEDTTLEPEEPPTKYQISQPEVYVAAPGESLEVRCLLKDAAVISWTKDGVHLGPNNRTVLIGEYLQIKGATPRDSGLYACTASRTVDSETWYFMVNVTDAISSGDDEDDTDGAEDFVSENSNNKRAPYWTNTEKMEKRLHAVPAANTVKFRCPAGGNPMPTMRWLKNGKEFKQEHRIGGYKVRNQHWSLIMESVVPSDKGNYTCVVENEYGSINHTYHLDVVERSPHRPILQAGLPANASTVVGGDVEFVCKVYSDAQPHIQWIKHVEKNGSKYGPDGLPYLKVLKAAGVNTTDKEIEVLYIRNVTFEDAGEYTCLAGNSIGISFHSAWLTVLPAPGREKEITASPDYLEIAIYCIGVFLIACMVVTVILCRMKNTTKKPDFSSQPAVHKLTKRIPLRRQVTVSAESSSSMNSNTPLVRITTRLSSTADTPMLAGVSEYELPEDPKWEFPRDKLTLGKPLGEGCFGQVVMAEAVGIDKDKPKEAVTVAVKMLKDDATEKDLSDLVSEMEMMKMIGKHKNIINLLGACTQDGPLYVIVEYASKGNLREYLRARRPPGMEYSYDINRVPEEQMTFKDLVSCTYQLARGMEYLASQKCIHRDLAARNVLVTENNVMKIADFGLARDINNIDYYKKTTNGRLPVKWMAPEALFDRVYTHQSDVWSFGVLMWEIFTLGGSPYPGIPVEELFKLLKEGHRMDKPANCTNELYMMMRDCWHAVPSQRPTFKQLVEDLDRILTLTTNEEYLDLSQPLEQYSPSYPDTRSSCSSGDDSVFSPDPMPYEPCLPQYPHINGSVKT
Sequence of FGFR3 (P22607 23-806): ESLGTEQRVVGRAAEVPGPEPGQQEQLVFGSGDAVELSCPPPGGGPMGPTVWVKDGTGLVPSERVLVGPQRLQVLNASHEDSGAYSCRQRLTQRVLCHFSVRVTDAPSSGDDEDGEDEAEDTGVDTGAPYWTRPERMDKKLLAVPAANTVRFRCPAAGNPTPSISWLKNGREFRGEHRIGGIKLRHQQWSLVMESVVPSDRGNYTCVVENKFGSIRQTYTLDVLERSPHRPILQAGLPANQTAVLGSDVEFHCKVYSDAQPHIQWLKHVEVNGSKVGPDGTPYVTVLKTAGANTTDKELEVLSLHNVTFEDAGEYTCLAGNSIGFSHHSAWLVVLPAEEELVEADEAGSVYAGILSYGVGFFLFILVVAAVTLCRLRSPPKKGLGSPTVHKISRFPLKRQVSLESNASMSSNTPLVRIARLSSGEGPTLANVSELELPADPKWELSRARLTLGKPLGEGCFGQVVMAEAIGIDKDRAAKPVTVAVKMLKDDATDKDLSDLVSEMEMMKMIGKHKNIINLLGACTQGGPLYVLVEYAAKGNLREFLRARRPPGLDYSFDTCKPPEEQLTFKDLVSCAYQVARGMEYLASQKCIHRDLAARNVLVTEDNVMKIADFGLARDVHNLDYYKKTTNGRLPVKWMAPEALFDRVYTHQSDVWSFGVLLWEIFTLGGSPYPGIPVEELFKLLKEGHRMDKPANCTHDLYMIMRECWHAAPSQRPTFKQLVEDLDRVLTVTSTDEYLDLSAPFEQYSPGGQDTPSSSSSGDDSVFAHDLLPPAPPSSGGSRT

pIC50 [1] | pIC50 [2] | IC50 ([3]; read-out: IC50 (nM) FGFR1, Mobility shift assay) | pIC50 [4] | pIC50 [3] | SMILES | inhibition of proliferation of colon cancer cells RKO [5] | inhibition of proliferation of colon cancer cells HCT-116 [6] | inhibition of proliferation of colon cancer cells SW480 [7]
< 5.30 | < 5.30 | – | 8.24 | < 5.30 | C=CC(=O)Nc1cccc(C)c1Nc1cc2c(cn1)cc(-c1c(Cl)c(OC)cc(OC)c1Cl)c(=O)n2CCCN1CCN(C)CC1 [Compound 25, N-(2-((3-(2,6-dichloro-3,5-dimethoxyphenyl)-2-oxo-1-(3-(4-methylpiperazin-1-yl)propyl)-1,2-2H-1,6-naphthyridin-7-yl)amino)-3-methylphenyl)acrylamide] | – | – | –
< 5.30 | < 5.30 | – | 8.36 | < 5.30 | C=CC(=O)Nc1cccc(C)c1Nc1cc2c(cn1)cc(-c1c(Cl)c(OC)cc(OC)c1Cl)c(=O)n2CCCN1CCOCC1 [Compound 27, N-(2-((3-(2,6-dichloro-3,5-dimethoxyphenyl)-1-(3-morpholinopropyl)-2-oxo-1,2-2H-1,6-naphthyridin-7-yl)amino)-3-methylphenyl)acrylamide] | – | – | –
< 5.30 | < 5.30 | – | – | < 5.30 | C=CC(=O)Nc1cccc(C)c1Nc1cc2c(cn1)cc(-c1c(Cl)c(OC)cc(OC)c1Cl)c(=O)n2CCCO [Compound 30, N-(2-((3-(2,6-dichloro-3,5-dimethoxyphenyl)-1-(3-hydroxypropyl)-2-oxo-1,2-2H-1,6-naphthyridin-7-yl)amino)-3-methylphenyl)acrylamide] | – | – | –

The remaining lines, values behind:

SMILES | pIC50 [1] | pIC50 [2] | IC50 ([3]; read-out: IC50 (nM) FGFR1, Mobility shift assay) | pIC50 [4] | pIC50 [3] | inhibition of proliferation of colon cancer cells RKO [5] | inhibition of proliferation of colon cancer cells HCT-116 [6] | inhibition of proliferation of colon cancer cells SW480 [7]
C=CC(=O)Nc1cccc(C)c1Nc1ncc2cc(-c3c(Cl)c(OC)cc(OC)c3Cl)ccc2n1 [BLU9931, reference compound] | 6.71 | 6.36 | 582 nM | – | – | – | – | –
C=CC(=O)Nc1cccc(C)c1Nc1cc2c(cn1)cc(-c1cc(OC)cc(OC)c1)c(=O)n2CCCN1CCCCC1 [Compound 22, N-(2-((3-(3,5-dimethoxyphenyl)-2-oxo-1-(3-(piperidin-1-yl)propyl)-1,2-dihydro-1,6-naphthyridin-7-yl)amino)-3-methylphenyl)acrylamide] | < 5.30 | < 5.30 | – | 8.01 | < 5.30 | – | – | –
C=CC(=O)Nc1cccc(C)c1Nc1cc2c(cn1)cc(-c1c(Cl)c(OC)cc(OC)c1Cl)c(=O)n2CCCN1CCCCC1 [Compound 23, N-(2-((3-(2,6-dichloro-3,5-dimethoxyphenyl)-2-oxo-1-(3-(piperidin-1-yl)propyl)-1,2-2H-1,6-naphthyridin-7-yl)amino)-3-methylphenyl)acrylamide] | < 5.30 | < 5.30 | – | 8.43 | < 5.30 | can inhibit proliferation | can inhibit proliferation | can inhibit proliferation
C=CC(=O)Nc1cccc(C)c1Nc1cc2c(cn1)cc(-c1cc(OC)cc(OC)c1)c(=O)n2CCCN1CCN(C)CC1 [Compound 24, N-(2-((3-(3,5-dimethoxyphenyl)-2-oxo-1-(3-(4-methylpiperazin-1-yl)propyl)-1,2-dihydro-1,6-naphthyridin-7-yl)amino)-3-methylphenyl)acrylamide] | < 5.30 | < 5.30 | – | 7.46 | < 5.30 | – | – | –
C=CC(=O)Nc1cccc(C)c1Nc1cc2c(cn1)cc(-c1cc(OC)cc(OC)c1)c(=O)n2CCCN1CCOCC1 [Compound 26, N-(2-((3-(3,5-dimethoxyphenyl)-1-(3-morpholinopropyl)-2-oxo-1,2-dihydro-1,6-naphthyridin-7-yl)amino)-3-methylphenyl)acrylamide] | < 5.30 | < 5.30 | – | – | < 5.30 | – | – | –
C=CC(=O)Nc1cccc(C)c1Nc1cc2c(cn1)cc(-c1cc(OC)cc(OC)c1)c(=O)n2CCCO [Compound 29] | < 5.30 | < 5.30 | – | 7.50 | < 5.30 | – | – | –
